Data on 15 compounds can be found in US10899785B2, “Aminoglycoside derivatives and uses thereof in treating genetic disorders” (Eloxx Pharmaceuticals Ltd., priority 2015, dated 2021).

The subject of test [1] is B. subtilis ATCC-6633. Briefly: Antibacterial activity, MIC by double-microdilution. Type of test: cell-based. The protocol:
(§1) Comparative antibacterial activities were determined in two representative strains of Gram-negative (E. coli R477-100) and Gram-positive (B. subtilis ATCC-6633) bacteria, by measuring the MIC values using the double-microdilution method according to the National Committee for Clinical Laboratory Standards (NCCLS) (NCCLS. National Committee for Clinical Laboratory Standards, Performance standards for antimicrobial susceptibility testing. Fifth information supplement: Approved Standard M100-S5; Villanova, Pa.: NCCLS, 1994.).
(§2) In all biological tests, all AGs were in their sulfate salt forms, and the concentrations refer to the free amine form of each AG. The eukaryotic and prokaryotic half-maximal-inhibition values (IC50^Euk and IC50^Pro) were quantified in coupled transcription/translation assays by using active luciferase detection as previously described. Minimal inhibitory concentration (MIC) values were determined by using the double-microdilution method.

The test system of test [2] is cystic fibrosis G542X nonsense mutation. Briefly: Cell-free nonsense mutation suppression dose-response assay, firefly/renilla. Type of test: biochemical, rabbit. To be noted: 0-50 μM, FIGS. 4-7. The protocol: (§3) The plasmids were transcribed in vitro and translated using rabbit reticulocytes (TNT mix) and then tested for the expression levels of the firefly and renilla luciferases.
(§4) WT plasmids expressed both firefly and renilla luciferases while mutant plasmids expressed only the renilla luciferase due to the stop codon found in the inserted sequence. The readthrough assays were conducted for the tested compounds and the controls by adding the compounds to the in vitro transcription/translation reaction mixture. In case the compounds exerted suppression of the premature nonsense/stop codon mutation, the firefly luciferase was expressed and a fold-change in its expression was observed.
Readthrough activity of Cystic Fibrosis (CF) mutation G542X was tested using the compounds presented in Table 1, and the mutation suppression was calculated based on firefly/renilla expression ratio values, and normalized with respect to the expression level of the WT and the control sample (no tested compound).

Test [3] has as its system Rett syndrome R168X, R270X and R294X nonsense mutations. Description: Cell-free nonsense mutation suppression assay, firefly/renilla. Type of test: biochemical, rabbit. The following applies: 5 μM, FIGS. 8A-C. The protocol: as §3, §4
FIGS. 8A-C present the results of Rett syndrome R168X (FIG. 8A), R270X (FIG. 8B) and R294X (FIG. 8C) nonsense mutations suppression cell-free assays conducted for six exemplary compounds according to embodiments of the present invention, NB144, NB145, NB146, NB150, NB151 and NB152, at a concentration of 5 μM. As shown therein, when compared with the control (non-treated cell extracts), the wild type cell extracts are unaffected (approx. 100%); however, in all three Rett syndrome mutation models there is a significant impact of the different treatments on the readthrough activity (>>>100%).

For test [4], the system named is E. coli R477-100. Briefly: Antibacterial activity, MIC by double-microdilution. Type of test: cell-based. The following applies: for MIC: Escherichia coli, R477100, read-out: Antibacterial Activity MIC E. Coli R 477/100. The protocol: as §1, §2
A general note: Dilution methods test growth across graded concentrations, often in twofold steps.

Test [5] has as its system nonsense constructs R3X and R245X (USH1), Q70X (HS), G542X (CF). Description: Dual luciferase in vitro readthrough assay, p2Luc plasmids, TNT Reticulocyte Lysate. The test is classed as biochemical. The following applies: for in vitro stop codon suppression (readthrough) activity compared with Compound 1: R3X nonsense mutation construct (USH1), FIG. 10. From the text:
DNA fragments derived from PCDH15, CFTR, and IDUA cDNAs, including the tested nonsense mutation or the corresponding wild type (wt) codon, and four to six upstream and downstream flanking codons were created by annealing the following pairs of complementary oligonucleotides:
Fragments were inserted in frame into the polylinker of the p2Luc plasmid between either BamHI and SacI (p.R3X and p.R245X) or SalI and SacI (all the rest) restriction sites. For the in vitro readthrough assays, the obtained plasmids, with addition of the tested aminoglycosides were transcribed and translated using the TNT Reticulocyte Lysate Quick Coupled Transcription/Translation System. Luciferase activity was determined after 90 minutes of incubation at 30° C., using the Dual Luciferase Reporter Assay System (Promega™).
Activity was tested using a collection of dual-luciferase reporter plasmids, containing different sequence contests around premature stop codons derived from the PCDH15, CFTR, and IDUA genes that underline USH1, CF, and MPS I-H, respectively. The exemplified nonsense reporters were R3X and R245X for USH1, G542X for CF, and Q70X for MPS I-H.

Test [6] deals with premature termination codon (PTC). Briefly: Comparative in-vitro PTC suppression activity assays (Example 6). Type of test: biochemical.
The subject of test [7] is prokaryotic ribosome (E. coli S30 extract). Briefly: Prokaryotic in vitro translation inhibition, coupled transcription/translation, E. coli S30 extract, pBESTluc. The following applies: from IC50^Pro and MIC values of Tables 4 and 6. Type of test: biochemical. How it is done: (§5) Prokaryotic in vitro translation inhibition by the different aminoglycosides was quantified in coupled transcription/translation assays by using E. coli S30 extract for circular DNA with the pBESTluc plasmid (Promega), according to the manufacturer's protocol. Translation reactions (25 μL) that contained variable concentrations of the tested aminoglycoside were incubated at 37° C. for 60 minutes, cooled on ice for 5 minutes, and diluted with a dilution reagent (tris-phosphate buffer (25 mM, pH 7.8), DTT (2 mM), 1,2-diaminocyclohexanetetraacetate (2 mM), glycerol (10%), Triton X-100 (1%) and BSA (1 mg mL-1)) into 96-well plates. Eukaryotic in vitro translation inhibition was quantified by use of TNT® T7 Quick Coupled Transcription/Translation System with a luciferase T7 control DNA plasmid (Promega), according to the manufacturer protocol. Translation reactions (25 μL) containing variable concentrations of the tested aminoglycoside were incubated at 30° C. for 60 minutes, cooled on ice for 5 minutes, diluted with the dilution reagent and transferred into 96-well plates. In both prokaryotic and eukaryotic systems the luminescence was measured immediately after the addition of the Luciferase Assay Reagent (50 μL; Promega), and the light emission was recorded with a FLx800 Fluorescence Microplate Reader (Biotek). The half-maximal inhibition concentration (IC50) values were obtained from fitting concentration-response curves to the data of at least two independent experiments by using Grafit 5 software.
as §2

In test [8] the test system is eukaryotic cytoplasmic ribosome. Briefly: Eukaryotic in vitro translation inhibition, TNT T7 Quick Coupled Transcription/Translation System, luciferase. To be noted: NB156 vs NB74, NB157 vs NB124. Type of test: biochemical. The protocol: as §5, with “Translation reactions (25 μL) containing variable concentrations of the tested aminoglycoside were incubated at 30° C. for 60 minutes, cooled on ice for 5 minutes, diluted with the dilution reagent and transferred into 96-well plates.” left out, “The half-maximal inhibition concentration (IC50) values were obtained from fitting concentration-response curves to the data of at least two independent experiments by using Grafit 5 software.” left out
In all biological tests, all AGs were in their sulfate salt forms, and the concentrations refer to the free amine form of each AG. […] Minimal inhibitory concentration (MIC) values were determined by using the double-microdilution method.

Setting [9] is: Bacillus subtilis, ATCC6633, Table 4, read-out: Antibacterial Activity MIC B. Subtilis ATCC6633.
Setting [10] is: Bacillus subtilis, ATCC6633, Table 6, read-out: Antibacterial activity MIC B. subtilis ATCC6633.
Where [11] appears, read: all mutations tested: R3X, R245X, Q70X, G542X, FIGS. 11A-D.

“Also recorded” adds a separate entry of the source. Like-named read-outs stand apart in the source and are kept apart here.

For the compound `CC(O)C1O[C@H](O[C@@H]2C(N)C[C@@H](N)C(O)C2O[C@@H]2O[C@H]([C@H](C)N)C(O)C2O)C(N)C(O)[C@@H]1O` (single isomer, unassigned) [NB124, reference compound], in test [1] (setting [9]), the MIC was found to be 156 µM.

On to `CC(C)CN[C@@H]1CC(N)[C@@H](O[C@H]2OC([C@@H](C)O)[C@@H](O)C(O)C2N)C(O)C1O` (stereo in doubt) [NB144], for which the “G542X mutation suppression (readthrough) activity, dose-response” value (“G542X mutation suppression” for short) in test [2] is on record as “notable dose-dependent readthrough activity”.

As to `C[C@@H](O)C1O[C@H](O[C@@H]2C(N)C[C@@H](NCc3ccccc3)C(O)C2O)C(N)C(O)[C@@H]1O` (stereo in doubt) [NB145], the “G542X mutation suppression” value in test [2] is given as “notable dose-dependent readthrough activity”.

`CCCN[C@@H]1CC(N)[C@@H](O[C@H]2OC([C@@H](C)O)[C@@H](O)C(O)C2N)C(O)C1O` (stereo in doubt) [NB146]: the “G542X mutation suppression” value in test [2] was “clearly dose-dependent for all three compounds, and particularly for NB146; also recorded: notable dose-dependent readthrough activity”. The “readthrough activity compared within the series” value in test [3] is “better activity compared to NB144 and NB145”.

Take `C[C@@H](O)C1O[C@H](O[C@@H]2C(N)C[C@@H](NC(=N)N)C(O)[C@H]2O)C(N)C(O)[C@@H]1O` (stereo in doubt) [NB150]: the “G542X mutation suppression” value in test [2] is listed as “notable dose-dependent readthrough activity”.

Turning to `C[C@@H](O)C1O[C@H](O[C@@H]2C(N)C[C@@H](N)C(O)C2O[C@@H]2O[C@H](CNC(=N)N)C(O)C2O)C(N)C(O)[C@@H]1O` (stereo in doubt) [NB151], in test [2], the “G542X mutation suppression” value is on record as “notable dose-dependent readthrough activity”.

In the case of `NC[C@H]1O[C@@H](OC2C(O)[C@H](N)CC(N)[C@H]2O[C@H]2OC(CO)[C@@H](O)C(O)C2N)C(O)C1O` (stereo partly shown) [NB30, reference compound], the MIC was 790 µg/mL in test [4] and 100 µg/mL in test [1] (setting [10]).

Turning to `C[C@H](N)[C@H]1O[C@@H](OC2C(O)[C@H](N)CC(N)[C@H]2O[C@H]2OC(CO)[C@@H](O)C(O)C2N)C(O)C1O` (stereo partly shown) [NB118, reference compound], the MIC in test [4] amounted to 2660 µg/mL; in test [1] (setting [10]), 83 µg/mL.

In the case of `N[C@H]1[C@@H](O[C@H]2[C@H](O)[C@@H](O)[C@H](N)C[C@@H]2N)O[C@H]([C@H](O)CO)[C@@H](O)[C@@H]1O` [NB153, (2R, 3S, 4R, 5R, 6S)-5-amino-6-(((1R, 2R, 3S, 4R, 6S)-4,6-diamino-2,3-dihydroxycyclohexyl)oxy)-2-((R)-1,2-dihydroxyethyl)tetrahydro-2H-pyran-3,4-diol], the figures for the MIC in test [4] and in test [1] (setting [9]) were greater than 311 µM and 311 µM, respectively. In test [5], the “in vitro stop codon suppression (readthrough) activity compared with Compound 1” value is recorded as “dramatically increases its in vitro readthrough activity”.

As to `N[C@H]1[C@@H](O[C@H]2[C@H](O)[C@@H](O)[C@H](N)C[C@@H]2N)OC(CO)=C[C@@H]1O` [NB154, (1S,2R,3R,4S,6R)-4,6-diamino-3-(((2S,3R,4S)-3-amino-4-hydroxy-6-(hydroxymethyl)-3,4-dihydro-2H-pyran-2-yl)oxy)cyclohexane-1,2-diol], the “in-vitro PTC suppression activity compared with structurally related compound” value in test [6] was “more or less similar activity as that of NB82”. The “readthrough activity, fold higher than paromamine” value in test [6] (preliminary comparative in-vitro PTC suppression assays) is roughly 3.5 fold. Moreover, the MIC in test [4] and in test [1] (setting [10]) was greater than 384 µg/mL throughout. Further, the “prokaryotic ribosome/protein synthesis inhibition and subsequent antibacterial activity compared with structurally related compound” value in test [7] is “significantly lower than that of the corresponding paromamine, NB30, and NB118”.

As to `N[C@H]1[C@@H](O[C@H]2[C@H](O)[C@@H](O)[C@H](N)C[C@@H]2N)O[C@H]([C@@H](O)CO)[C@@H](O)[C@@H]1O` [NB155, (2R, 3S, 4R, 5R, 6S)-5-amino-6-(((1R, 2R, 3S, 4R, 6S)-4,6-diamino-2,3-dihydroxycyclohexyl)oxy)-2-((S)-1,2-dihydroxyethyl)tetrahydro-2H-pyran-3,4-diol], the MIC in test [4] and in test [1] (setting [9]) was greater than 375 µM throughout. Besides, the “in vitro stop codon suppression (readthrough) activity compared with Compound 1” value in test [5] was “somewhat higher activity of NB155 to that of Compound 1”.

Consider `C[C@H](N)[C@H]1O[C@@H](O[C@@H]2[C@@H](O)[C@H](N)C[C@H](N)[C@H]2O[C@H]2O[C@H]([C@H](O)CO)[C@@H](O)[C@H](O)[C@H]2N)[C@@H](O)[C@H]1O` [NB157, (2R, 3S, 4R, 5R, 6S)-5-amino-6-(((1R, 2R, 3S, 4R, 6S)-4,6-diamino-2-(((2S, 3S, 4R, 5R)-5-((S)-1-aminoethyl)-3,4-dihydroxytetrahydrofuran-2-yl)oxy)-3-hydroxycyclohexyl)oxy)-2-((R)-1,2-dihydroxyethyl)tetrahydro-2H-pyran-3,4-diol], for which the MIC was greater than 257 µM in test [4] and 64 µM in test [1] (setting [9]). Moreover, the “prokaryotic ribosome/protein synthesis inhibition and subsequent antibacterial activity compared with structurally related compound” value in test [7] is “very similar to those of their structurally related Compounds NB74 and NB124”. The “fold more specific to the eukaryotic ribosome than structurally related compound” value in test [8] was found to be 1.25 fold. In addition, in test [5] (setting [11]), the “readthrough activity compared with gentamicin” value was “significantly better than that of the clinical drug gentamicin”. For the same compound, the “readthrough activity compared with structurally related compound” value in test [5] (setting [11]) was “better than its structurally related NB124”.

Turning to `NC[C@H]1O[C@@H](O[C@@H]2C(O)[C@H](N)CC(N)[C@H]2O[C@H]2OC(CO)=CC(O)[C@@H]2N)C(O)[C@H]1O` (stereo partly shown) [NB158], in test [1] (setting [10]), the MIC came out at 192 µg/mL. Also, in test [7], the “prokaryotic ribosome/protein synthesis inhibition and subsequent antibacterial activity compared with structurally related compound” value was “significantly lower than that of the corresponding paromamine, NB30, and NB118”.

With `C[C@H](N)[C@H]1O[C@@H](O[C@@H]2C(O)[C@H](N)CC(N)[C@H]2O[C@H]2OC(CO)=CC(O)[C@@H]2N)C(O)[C@H]1O` (stereo partly shown) [NB159], the MIC in test [1] (setting [10]) was determined as 192 µg/mL. Besides, the “prokaryotic ribosome/protein synthesis inhibition and subsequent antibacterial activity compared with structurally related compound” value in test [7] is “significantly lower than that of the corresponding paromamine, NB30, and NB118”.

On to gentamicin [reference compound], for which, in test [4] (Table 4), the “Antibacterial Activity MIC E. Coli R 477/100” value amounted to 6 µM. Also, the MIC in test [1] (Table 4, read-out: Antibacterial Activity MIC B. Subtilis ATCC6633) is recorded as less than 0.75 µM.
